From patent publication US20140000884A1, “PETROLEUM RECOVERY PROCESS AND SYSTEM” (Shell Oil Company, priority 2012, published 2014) come the findings set out here.

A short description of this data set: Dynamic viscosity of crude/dimethyl sulfide blends (rheometer, closed cup). It counts as physicochemical. How it is done: The quality of dimethyl sulfide as an oil recovery agent based on the crude oil viscosity lowering properties of dimethyl sulfide was evaluated. Three crude oils having widely disparate viscosity characteristics—an African Waxy crude, a Middle Eastern asphaltic crude, and a Canadian asphaltic crude—were blended with dimethyl sulfide.
A control sample of each crude was prepared containing no dimethyl sulfide, and samples of each crude were prepared and blended with dimethyl sulfide to prepare crude samples containing increasing concentrations of dimethyl sulfide. Each sample of each of the crudes was heated to 60° C. to dissolve any waxes therein and to permit weighing of a homogeneous liquid, weighed, allowed to cool overnight, then blended with a selected quantity of dimethyl sulfide. The samples of the crude/dimethyl sulfide blend were then heated to 60° C. and mixed to ensure homogeneous blending of the dimethyl sulfide in the samples. Absolute (dynamic) viscosity measurements of each of the samples were taken using a rheometer and a closed cup sensor assembly. Viscosity measurements of each of the samples of the West African waxy crude and the Middle Eastern asphaltic crude were taken at 20° C., 40° C., 60° C., 80° C., and then again at 20° C. after cooling from 80° C., where the second measurement at 20° C. is taken to measure the viscosity without the presence of waxes since wax formation occurs slowly enough to permit viscosity measurement at 20° C. without the presence of wax. Viscosity measurements of each of the samples of the Canadian asphaltic crude were taken at 5° C., 10° C., 20° C., 40° C., 60° C., 80° C.

Take `CSC` [Dimethyl Sulfide, dimethyl sulfide]: the Viscosity worked out at 212525 mPa s (DMS 1.43 wt. %, 20° C.); 14721 mPa s (DMS 1.43 wt. %, 40° C.); 2209 mPa s (DMS 1.43 wt. %, 60° C.); 538 mPa s (DMS 1.43 wt. %, 80° C.); 134880 mPa s (DMS 2.07 wt. %, 20° C.); 10523 mPa s (DMS 2.07 wt. %, 40° C.). Besides, the Viscosity is, setting by setting: (DMS 2.07 wt. %, 60° C.) 1747 mPa s; (DMS 2.07 wt. %, 80° C.) 427 mPa s; (DMS 4.87 wt. %, 20° C.) 28720 mPa s; (DMS 4.87 wt. %, 40° C.) 3235 mPa s; (DMS 4.87 wt. %, 60° C.) 985 mPa s; (DMS 4.87 wt. %, 80° C.) 328 mPa s.
